According to paper PMC10403511, “DNA-encoded chemical libraries yield non-covalent and non-peptidic SARS-CoV-2 main protease inhibitors” (Communications Chemistry, 2023):
“Also recorded” adds a separate entry of the source. Where two headings read alike, the source gives them in different places.

What was measured:
[1] = target: T1, SARS-CoV-2 M^pro (Severe acute respiratory syndrome coronavirus 2, UniProt P0DTD1); experiment: M^pro enzyme inhibition assay, proteolytic cleavage of fluorescent peptide reporter, Ki by Morrison equation; format: biochemical; settings: for decrease of activity compared to CDD-1733: from Ki values
T1 construct: the gene for M^pro (ORF1ab residues 3264 to 3569, GenBank code: MN908947.3); Sumo fusion with M^pro cleavage site (SAVLQ↓SGFRK) (N, cleaved yes); 6xHis-tag behind PreScission site (SGVTFQ↓GP) (C); made in house; host or cells: E. coli BL21(DE3)
Excerpt: Hydrolysis of the fluorescent peptide was monitored at an emission wavelength of 460 nm with an excitation wavelength of 360 nm using a TECAN M200 plate reader. Initial hydrolysis rates of fluorescent peptide were plotted as a function of compound concentrations, and Ki values were obtained by fitting the data into the Morrison equation[32] with SE from triplicates.
inhibitors. […] The remaining activities (red dots) of Mpro towards fluorescent
peptide we re plotted as a function of compound concentrations and Ki values wa s calculated by fitting the da ta int o Morrison equation wit h standard error f romS6 […]

[2] = target: T2, matrix metallopeptidase-1 (MMP-1) (Homo sapiens, UniProt P03956); experiment: Human protease off-target assay, commercial kit; format: biochemical; settings: 10 µM compound, 37 °C
T2 construct: purchased Biovision K794-100
T2 sequence (P03956 100-469): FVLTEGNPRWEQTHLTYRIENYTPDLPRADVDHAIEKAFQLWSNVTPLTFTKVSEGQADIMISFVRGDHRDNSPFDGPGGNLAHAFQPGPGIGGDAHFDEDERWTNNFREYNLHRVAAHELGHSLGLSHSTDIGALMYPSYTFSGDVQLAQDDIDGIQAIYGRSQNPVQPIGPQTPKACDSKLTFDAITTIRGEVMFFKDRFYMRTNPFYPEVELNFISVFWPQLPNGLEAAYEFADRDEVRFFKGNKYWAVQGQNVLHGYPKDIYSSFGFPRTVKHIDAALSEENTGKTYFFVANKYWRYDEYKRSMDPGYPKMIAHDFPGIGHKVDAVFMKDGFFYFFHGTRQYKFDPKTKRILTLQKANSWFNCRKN
Procedure: (§1) These assays were done exactly as we described earlier. In brief, commercial kits were used for all four human proteases as follows: Cathepsin B (BPS Bioscience, #79590), Renin (BPS Bioscience, #80211), Thrombin (Sigma-Aldrich, #MAK243), and MMP-1 (Biovision, #K794-100). All assays were run in kinetic mode and at RT, except MMP-1, which was run at 37 °C. Positive controls were used for all assays, i.e., E64 for Cathepsin B, Aliskiren for Renin, CDD-1472 for Thrombin, and GM 6001 for MMP-1. Activities were obtained from linear initial progress curves, and fractional activities were calculated from reactions with no inhibitors[17],[19],[34].
(§2) Supplementary Figure 4. Potential off-target inhibition of major proteases, i.e. thrombin (a serine protease), cathepsin B (a cysteine protease like Mpro), renin (an
(§3) control inhibitors as indicated. S9 […]

[3] = target: T3, cathepsin B (Homo sapiens, UniProt P07858); experiment: Human protease off-target assay, commercial kit; format: biochemical; settings: 10 µM compound
T3 construct: purchased BPS Bioscience 79590
Procedure: as §1, §2, §3

[4] = target: T4, renin (Homo sapiens, UniProt P00797); experiment: Human protease off-target assay, commercial kit; format: biochemical; settings: 11.1 µM compound
T4 construct: purchased BPS Bioscience 80211
T4 sequence (P00797 67-406): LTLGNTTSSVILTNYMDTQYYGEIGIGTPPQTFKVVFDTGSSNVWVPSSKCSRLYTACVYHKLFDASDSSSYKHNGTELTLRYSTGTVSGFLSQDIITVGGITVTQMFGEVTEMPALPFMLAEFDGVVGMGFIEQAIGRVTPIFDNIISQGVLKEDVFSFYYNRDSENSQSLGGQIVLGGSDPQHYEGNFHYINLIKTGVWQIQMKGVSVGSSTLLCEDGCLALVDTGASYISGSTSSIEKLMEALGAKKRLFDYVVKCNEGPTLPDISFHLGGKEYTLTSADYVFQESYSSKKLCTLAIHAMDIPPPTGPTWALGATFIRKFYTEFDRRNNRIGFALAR
Procedure: as §1, §2, §3

[5] = target: T5, thrombin (Homo sapiens, UniProt P00734); experiment: Human protease off-target assay, commercial kit; format: biochemical; settings: 10 µM compound
T5 construct: purchased Sigma-Aldrich MAK243
Procedure: as §1, §2, §3

[6] = test system: HepG2 cells
[7] = in vivo; settings: 50 mg/kg; for half-life: plasma
Procedure: The whole blood samples were centrifuged at rcf 2000 for 5 min for the plasma separation of plasma. The plasma samples were stored at −80 °C before analysis. All the samples were analyzed with a Q Exactive orbitrap MS coupled with UHPLC (Thermo Fisher Scientific, San Jose, CA). LC-Q Exactive MS was operated in the same parameters used in the cell uptake assay above. The concentration of these compounds in plasma was quantified using individual calibration curves.
PK parameters such as half-time (T1/2), area under the plasma concentration–time curve during the period of observation (AUC0–t), area under the plasma concentration–time curve from zero to infinity (AUC0–∞), clearance normalized by the bioavailability (CL/F), and the mean residence time (MRT) were calculated by WinNonlin software (Certara, Princeton, NJ) by noncompartmental analysis. The plasma concentration–time curves were plotted in Prism 7 (GraphPad, San Diego, CA) as mean ± S.D.
Mouse PK of CDD compounds, 50 mg/kg
samples we re collected at 0, 5, 10, 15, 30 m in , 1, 2, 4, 6 and 8 h af ter dosing. P la sm a samples we re separated, prepared and analyzed wit h LC-MS. The compound
± SD (n=4). Tmax, time to rea ch the m a ximum pla sma concentration. Cm ax, maximum p las m a concentration. T1/2, half-lif e . AUC, area under the cu rve . CL, clea ran ce . F,
bioavailability. M R T, mean residence time.

[8] = test system: HepG2 cells; experiment: cells; settings: Homo sapiens, HepG2, 24 h, read-out: IC50 (HepG2 cell viability)
[9] = format: in vitro ADME, mouse; settings: mouse, plasma, 2 h, 10 μM
Procedure: (§4) At time points of 0, 30, 60, and 120 min, 15 μL of the samples were taken out, and the reactions were terminated by adding 75 μL of ice-cold methanol. The reaction mixtures were then vortexed for 30 s and centrifuged at 15,000 rcf for 15 min. […] The percentage of test compound remaining at the individual time points was normalized by the 0-min.
(§5) 10 µM in duplicate (n=2) at 37 °C. The reactions were terminated at time points of 0, 30, 60 and 120 min by adding ice-cold methanol. Following centrifugation, the supernatant was analyzed using UHPLC-Q E xa ct ive Orbitrap MS. The percentage of test compound remaining at the individual time points relative to the 0 min sample was determined S12

[10] = in vitro; settings: human
[11] = format: in vitro ADME, human; settings: human, plasma, 2 h, 10 μM
Procedure: as §4, §5

[12] = 25 nM Mpro with authentic termini (no His-tag), standard error from triplicates, Inactive: less than 50% inhibition with 25 µM compound, read-out: Mpro Ki
[13] = Fig. 2, Suppl. Fig. 1, construct not given, Inactive: inhibited M^pro activity by less than 90% with 25 μM, read-out: Ki
[14] = 25 nM Mpro with authentic termini (no His-tag), standard error from triplicates, Inactive: less than 50% inhibition with 25 µM compound
[15] = 25 nM Mpro-6-His, standard error from triplicates, Inactive: less than 50% inhibition with 25 µM compound in initial screening
[16] = Fig. 2, Suppl. Fig. 1, construct not given, Inactive: inhibited M^pro activity by less than 90% with 25 μM

CNC(=O)CCCn1c(-c2ccc3cnccc3c2)nc2cccc(C(=O)N[C@@H](C)c3ccc4ccccc4c3)c21 [CDD-1884]
Ki [1]: inactive or exhibit greatly decreased potency
Mpro Ki [1]: Inactive
Mpro-His Ki [1]: Inactive

CNC(=O)[C@H]1C[C@H](n2c(-c3cncc4ccccc34)nc3cccc(C(=O)N[C@@H](C)c4ccc(C(F)(F)F)cc4)c32)C1 [CDD-1829]
Ki [1, 12]: 48 ± 5 nM
Ki [1, 13]: 46 nM

CCC[C@H](NC(=O)c1cccc2nc(-c3cncc4ccccc34)n(CCCC(=O)NC)c12)c1ccc(C(F)(F)F)cc1 [CDD-1830]
Ki [1, 12]: 6 ± 1 nM
Ki ([1]; 25 nM Mpro-6-His, standard error from triplicates, Inactive: less than 50% inhibition with 25 µM compound in initial screening, read-out: Mpro-His Ki): 6 ± 1 nM
Ki [1, 13]: 6 nM

CNC(=O)[C@H]1C[C@H](n2c(-c3cncc4ccccc34)nc3cccc(C(=O)NC(C)C)c32)C1 [CDD-1842]
Mpro Ki [1, 14]: Inactive
Mpro-His Ki [1, 15]: Inactive
Ki [1, 16]: completely inactive

CNC(=O)CCCn1c(-c2ccc(N)nc2)nc2cccc(C(=O)N[C@@H](C)c3ccc4ccccc4c3)c21 [CDD-1926]
Ki [1]: inactive or exhibit greatly decreased potency
Mpro Ki [1]: Inactive
Mpro-His Ki [1]: Inactive

CNC(=O)CCCn1c(-c2cncc3ccccc23)nc2cccc(C(=O)N[C@@H](C)c3ccc4ccccc4c3)c21 [CDD-1845]
inhibition of enzymatic activity [2]: None of these inhibitors blocked the enzymatic activity
inhibition of enzymatic activity [3]: None of these inhibitors blocked the enzymatic activity
inhibition of enzymatic activity [4]: None of these inhibitors blocked the enzymatic activity
inhibition of enzymatic activity [5]: None of these inhibitors blocked the enzymatic activity
cytotoxicity [6]: no obvious cytotoxicity
AUC(0-inf) ([7]; male, mouse, in vivo, po): 14.9 ± 7.85 µM·h
AUC(0-t) ([7]; male, mouse, in vivo, po): 14.9 ± 7.79 µM·h
Cmax ([7]; male, mouse, in vivo, po): 8.93 ± 4.55 µM
MRT inf ([7]; male, mouse, in vivo, po): 1.25 ± 0.02 h
MRT last ([7]; male, mouse, in vivo, po): 1.22 ± 0.03 h
Tmax ([7]; male, mouse, in vivo, po): 0.33 ± 0.14 h
half-life ([7]; male, mouse, oral): 1.1 ± 0.3 h
half-life ([7]; male, mouse, po): 1.14 ± 0.32 h
CL/F ([7]; mice, per oral gavage (po.), n=4, mean ± SD): 4.02 ± 1.98 mg/ ( hr*µmol/L)/kg
IC50 [8]: > 100000 nM
compound remaining in plasma [9]: 80%
viability at 24 h, 100 µM [10]: > 80%
compound remaining in plasma [11]: 80%

CCC[C@H](NC(=O)c1cccc2nc(-c3cccnc3)n([C@H]3C[C@H](C(=O)NC)C3)c12)c1ccc(C(F)(F)F)cc1 [CDD-1831]
Mpro Ki [1, 14]: Inactive
Mpro-His Ki [1, 15]: Inactive
Ki [1, 16]: total loss of activity; also recorded: inactive or exhibit greatly decreased potency

CCC[C@H](NC(=O)c1cccc2nc(-c3cncc4ccccc34)n([C@H]3C[C@H](C(=O)NC)C3)c12)c1ccc(OC(F)F)cc1 [CDD-1780]
Ki [1, 12]: 16 ± 2 nM
Ki [1, 13]: 14 nM

CCC[C@H](NC(=O)c1cccc2nc(-c3cncc4ccccc34)n([C@H]3CC[C@H](C(=O)NC)C3)c12)c1ccc(C(F)(F)F)cc1 [CDD-1790]
Ki ([1]; read-out: Ki): 620 nM
Ki ([1]; read-out: Mpro Ki): 664 ± 66 nM

CCC[C@H](NC(=O)c1cccc2nc(-c3cncc4ccccc34)n([C@H]3C[C@H](C(=O)NC)C3)c12)c1cccc(C(F)(F)F)c1 [CDD-1795]
Ki [1, 12]: 35 ± 5 nM
Ki [1, 13]: 29 nM
decrease of activity compared to CDD-1733 [1]: approximately 2 fold

CCC[C@H](NC(=O)c1cccc2nc(-c3cncc4ccccc34)n(C(C)C)c12)c1ccc(C(F)(F)F)cc1 [CDD-1804]
Mpro Ki [1, 14]: Inactive
Mpro-His Ki [1, 15]: Inactive
Ki [1, 16]: completely abolished; also recorded: greatly reduces potency

CNC(=O)CCCn1c(-c2cncc3ccccc23)nc2cccc(C(=O)NCc3ccc4ccccc4c3)c21 [CDD-1925]
Ki ([1]; read-out: Ki): 51 nM
Ki ([1]; read-out: Mpro Ki): 42 ± 5 nM

CCC[C@H](NC(=O)c1cccc2nc(-c3cncc4ccccc34)n(C3CCNCC3)c12)c1ccc(C(F)(F)F)cc1 [CDD-1818]
Ki ([1]; read-out: Ki): 1470 nM
Ki ([1]; read-out: Mpro Ki): 1710 ± 128 nM

CNC(=O)CCCn1c(-c2cnccc2C)nc2cccc(C(=O)N[C@@H](C)c3ccc4ccccc4c3)c21 [CDD-1924]
Ki ([1]; read-out: Mpro Ki): 426 ± 47 nM

CNC(=O)CCCn1c(-c2cccc3ccccc23)nc2cccc(C(=O)N[C@@H](C)c3ccc4ccccc4c3)c21 [CDD-1885]
Mpro Ki [1]: Inactive
Mpro-His Ki [1]: Inactive

CNC(=O)CCCn1c(-c2ccnc3ccccc23)nc2cccc(C(=O)N[C@@H](C)c3ccc4ccccc4c3)c21 [CDD-1906]
Mpro Ki [1]: Inactive
Mpro-His Ki [1]: Inactive

CCC[C@H](NC(=O)c1cccc2nc(-c3cncc4ccccc34)n(C3CCC3)c12)c1ccc(C(F)(F)F)cc1 [CDD-1806]
Ki [1, 16]: greatly reduces potency
decrease of activity compared to CDD-1733 [1]: more than 14 fold

CCC[C@H](NC(=O)c1cccc2nc(-c3cncc4ccccc34)n([C@H]3C[C@H](C(=O)NC)C3)c12)c1ccccc1 [CDD-1843]
Mpro Ki [1]: Inactive
Mpro-His Ki [1]: Inactive

CNC(=O)[C@H]1C[C@H](n2c(-c3cncc4ccccc34)nc3cccc(C(=O)N[C@@H](C)c4ccccc4)c32)C1 [CDD-1841]
Ki ([1]; read-out: Ki): 571 nM
Ki ([1]; read-out: Mpro Ki): 565 ± 55 nM
